Consider two compounds from patent publication US11591315B2, “Substituted pyrazole-pyrimidines, variants thereof, and uses therefore” (Afferent Pharmaceuticals, Inc., priority 2016, dated 2023).

Bounds are passed on as bounds.

In one test the target is T1, human P2X3 receptor (Homo sapiens, UniProt P56373).
T1 construct: expressed in transfected cells; host or cells: HEK293 human embryonic kidney cells (HEK-hP2X3)
T1 sequence (P56373 1-397): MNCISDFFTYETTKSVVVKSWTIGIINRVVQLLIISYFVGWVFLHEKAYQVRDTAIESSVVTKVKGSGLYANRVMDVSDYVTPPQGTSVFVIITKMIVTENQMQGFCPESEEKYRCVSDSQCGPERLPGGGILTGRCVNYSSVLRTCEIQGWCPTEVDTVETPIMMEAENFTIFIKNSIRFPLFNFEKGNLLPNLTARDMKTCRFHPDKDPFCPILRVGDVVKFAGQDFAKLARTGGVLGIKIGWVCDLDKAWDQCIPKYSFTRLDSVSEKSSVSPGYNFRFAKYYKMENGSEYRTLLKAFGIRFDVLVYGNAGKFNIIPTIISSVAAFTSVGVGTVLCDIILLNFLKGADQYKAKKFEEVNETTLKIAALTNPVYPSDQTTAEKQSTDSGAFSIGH
As to the kind of experiment: FlexStation calcium fluorescence assay, HEK293 cells stably transfected with human P2X3 (homomeric P2X3 channels). Type of test: cell-based. The settings on record: HEK-hP2X3 cells, Calcium 6 dye, agonist 1 μM α,β-meATP, 20 minutes incubation; read-out: Average pIC50 P2X3 (converted). The protocol:
(§1) 1321N1 human astrocytoma and HEK293 human embryonic kidney cells were stably transfected with human P2X2 and P2X3 receptor subunits to form heteromeric P2X2/3 channels and passaged in flasks. Additionally, HEK293 cells were stably transfected with human P2X3 receptor subunits to form homomeric P2X3 channels.
(§2) Approximately 24 hours before the FlexStation calcium fluorescence experiment, cells were released from their flasks, centrifuged and re-suspended in nutrient medium. The cells were aliquoted into black-wall, clear-bottom 96 well plates at a density of 25,000 cells per well and incubated overnight in a humidified, CO2-enriched (5%) atmosphere at 37° C. […]
(§3) After 20 minutes incubation at room temperature and protected from light, the assay plates were loaded into the FlexStation microplate reader and baseline fluorescence measured with an excitation wavelength of 485 nm and emission wavelength readings centered at 525 nm (515 nm cut off).
(§4) The agonist was dispensed by the FlexStation during fluorescence measurement to construct agonist activation and antagonist inhibition curves. […] Peak fluorescence was measured and curves generated using a four parameter nonlinear regression equation. […]

The next test concerns the target T2, human P2X2/3 channels (Homo sapiens, UniProt P56373+Q9UBL9).
T2 construct: expressed in transfected cells; host or cells: 1321N1 human astrocytoma cells (1321N1-hP2X2/3)
T2 sequence (P56373 1-397): T1 sequence (P56373 1-397)
T2 sequence (Q9UBL9 1-471): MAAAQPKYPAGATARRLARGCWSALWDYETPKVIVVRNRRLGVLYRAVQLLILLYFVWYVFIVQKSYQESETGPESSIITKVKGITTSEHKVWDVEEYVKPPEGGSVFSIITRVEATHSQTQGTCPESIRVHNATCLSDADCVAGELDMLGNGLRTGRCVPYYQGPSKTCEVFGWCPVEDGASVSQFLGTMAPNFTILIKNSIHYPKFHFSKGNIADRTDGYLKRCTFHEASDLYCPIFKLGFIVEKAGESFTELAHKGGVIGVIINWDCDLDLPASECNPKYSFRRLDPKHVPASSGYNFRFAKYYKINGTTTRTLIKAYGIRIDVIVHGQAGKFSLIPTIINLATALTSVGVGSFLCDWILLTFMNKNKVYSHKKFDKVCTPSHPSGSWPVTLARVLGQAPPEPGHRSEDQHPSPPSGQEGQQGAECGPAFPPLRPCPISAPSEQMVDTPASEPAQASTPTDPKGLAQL
The experiment in a line: FlexStation calcium fluorescence assay, 1321N1 cells stably transfected with human P2X2 and P2X3 (heteromeric P2X2/3 channels). It counts as cell-based. The settings on record: 1321N1-hP2X2/3 cells, Fluo-4 dye, agonist ATP, 20 minutes incubation; read-out: Average pIC50 P2X2/3 (converted). On the procedure: as §1, §2, §3, §4

Consider `COc1cc(Oc2cnc(N)nc2N)n(C(C)C)n1` [Compound 2], for which the IC50 at human P2X3 receptor was 288 nM; at human P2X2/3 channels it was 1950 nM.
The matching figures for `CCOc1cc(Oc2cnc(N)nc2N)n(C(C)C)n1` [Compound 1]: 6920 nM and over 10000 nM.
